Measurements taken from patent US20220054411A1, “MULTIPLE CONCENTRATE FORMULATION FOR MEDICAL PRODUCTS” (priority 2020, published 2022).
Converted amounts (≈) assume the structure as drawn.

Assays:
Assay type in all cases: cell-based
Pseudomonas Aeruginosa = assay: Minimal Inhibitory Concentration against Pseudomonas Aeruginosa
Staphylococcus Aureus = assay: Minimal Inhibitory Concentration against Staphylococcus Aureus
[1] = test system: Staphylococcus epidermidis; assay: Minimal Inhibitory Concentration against Staphylococcus epidermidis; conditions: at 24 hours
Escherichia coli = assay: Minimal Inhibitory Concentration against Escherichia coli

MIC (Staphylococcus Aureus; pH 5, at 24 hours) [µg/mL]	MIC (Staphylococcus Aureus; pH 6, at 24 hours) [µg/mL]	MIC (Staphylococcus Aureus; pH 7, at 24 hours) [µg/mL]	MIC (Escherichia coli; pH 5, at 24 hours) [µg/mL]	MIC (Escherichia coli; pH 6, at 24 hours) [µg/mL]	MIC (Escherichia coli; pH 7, at 24 hours) [µg/mL]	Structure (SMILES)	Minimal Inhibitory Concentration (Pseudomonas Aeruginosa) [micrograms per milliliter]	Minimal Inhibitory Concentration (Staphylococcus Aureus; pH 5, at 24 hours) [micrograms per milliliter]	Minimal Inhibitory Concentration (Staphylococcus Aureus; pH 6, at 24 hours) [micrograms per milliliter]	Minimal Inhibitory Concentration (Staphylococcus Aureus; pH 7, at 24 hours) [micrograms per milliliter]	Minimal Inhibitory Concentration [1] [micrograms per milliliter]	Minimal Inhibitory Concentration (Escherichia coli; pH 5, at 24 hours) [micrograms per milliliter]	Minimal Inhibitory Concentration (Escherichia coli; pH 6, at 24 hours)	Minimal Inhibitory Concentration (Escherichia coli; pH 7, at 24 hours)
–	–	–	–	–	–	CCCCCCCCCCCC(=O)OCC(O)CO (centres unmarked) [Monolaurin, monolaurin]	62.5	16	64	128	1953	500	2,000 micrograms per milliliter	>4,000 micrograms per milliliter
156 (≈ 1390 µM)	312 (≈ 2790 µM)	1250 (≈ 11100 µM)	312 (≈ 2790 µM)	1250 (≈ 11100 µM)	> 5000	C/C=C/C=C/C(=O)O [Sorbic Acid, sorbic acid]	–	–	–	–	–	–	–	–
